Assays:
Type in all cases: biochemical
[1] = target: recombinant rabbit GSK-3β (Oryctolagus cuniculus, UniProt G1T8E2); assay: Glycogen Synthase Kinase-3 assay; parameters: GSK-3β Assay Activity, % @ 200 nM: scale not given here; conditions: PPI-2 substrate; for IC50: 33P-ATP, 90 minutes at 30° C.
Description: Compounds were tested for the ability to inhibit recombinant rabbit GSK-3β using the following protocol. The test compound was added to a reaction mixture containing Protein phosphatase inhibitor-2 (PPI-2) (Calbiochem) (45 ng), rabbit GSK-3β (New England Biolabs) (0.75 units) and ^33P-ATP (1 μCi) in 50 mM Tris-HCl (pH 8.0), 10 mM MgCl2, 0.1% BSA, 1 mM DTT and 100 μM Sodium Vanadate. The mixture was reacted for 90 minutes at 30° C. to allow phosphorylation of the PPI-2 protein and then the protein in the reaction was precipitated using 10% TCA. The precipitated protein was collected on filter plates (MultiScreen-DV/Millipore), which were subsequently washed. Finally, the radioactivity was quantified using a TopCount Scintillation Counter (Packard). […] Staurosporine or Valproate, known inhibitors of GSK-3β, were used as a positive control for screening.

[2] = target: PKC α (Homo sapiens, UniProt P17252); assay: Protein Kinase C histone-based assay, α isoform; parameters: PKC Activity Alpha, % @ 10 μM (Histone Based Assay): scale not given here; conditions: histone III substrate; for IC50: 30 μM ATP, approximately ± 30 percent margin of error, read-out: PKC Activity Alpha (IC50, Histone Based Assay)
Description: (§1) Compounds were evaluated for PKC selectivity using histone III as the substrate. The PKC isoforms α, β-II or γ were added to a reaction mixture that contained 20 mM HEPES, (pH 7.4), 940 μM CaCl2, 10 mM MgCl2, 1 mM EGTA. 100 μg/mL phosphatidylserine, 20 μg/mL diacylglycerol, 30 μM ATP, 1 μCi (^33P)ATP and 200 μg/mL histone III. The reaction was incubated for 10 min at 30° C. Reactions were terminated by TCA precipitation and spotting on Whatman P81 filters. Filters were washed in 75 mM phosphoric acid and the radioactivity quantified by liquid scintillation counting.

[3] = target: PKC β-II (Homo sapiens, UniProt P05771); assay: Protein Kinase C histone-based assay, β-II isoform; parameters: PKC Activity Beta II, % @ 1 μM (Histone Based Assay): scale not given here; conditions: histone III substrate; for IC50: 30 μM ATP, approximately ± 30 percent margin of error, read-out: PKC Activity Beta II (IC50, Histone Based Assay)
Description: as §1

[4] = target: PKC γ (Homo sapiens, UniProt P05129); assay: Protein Kinase C histone-based assay, γ isoform; parameters: PKC Activity Gamma, % @ 10 μM (Histone Based Assay): scale not given here; conditions: histone III substrate; for IC50: 30 μM ATP, approximately ± 30 percent margin of error, read-out: PKC Activity Gamma (IC50, Histone Based Assay)
Description: as §1

PKC β-II, sequence (P05771 1-673 isoform P05771-2): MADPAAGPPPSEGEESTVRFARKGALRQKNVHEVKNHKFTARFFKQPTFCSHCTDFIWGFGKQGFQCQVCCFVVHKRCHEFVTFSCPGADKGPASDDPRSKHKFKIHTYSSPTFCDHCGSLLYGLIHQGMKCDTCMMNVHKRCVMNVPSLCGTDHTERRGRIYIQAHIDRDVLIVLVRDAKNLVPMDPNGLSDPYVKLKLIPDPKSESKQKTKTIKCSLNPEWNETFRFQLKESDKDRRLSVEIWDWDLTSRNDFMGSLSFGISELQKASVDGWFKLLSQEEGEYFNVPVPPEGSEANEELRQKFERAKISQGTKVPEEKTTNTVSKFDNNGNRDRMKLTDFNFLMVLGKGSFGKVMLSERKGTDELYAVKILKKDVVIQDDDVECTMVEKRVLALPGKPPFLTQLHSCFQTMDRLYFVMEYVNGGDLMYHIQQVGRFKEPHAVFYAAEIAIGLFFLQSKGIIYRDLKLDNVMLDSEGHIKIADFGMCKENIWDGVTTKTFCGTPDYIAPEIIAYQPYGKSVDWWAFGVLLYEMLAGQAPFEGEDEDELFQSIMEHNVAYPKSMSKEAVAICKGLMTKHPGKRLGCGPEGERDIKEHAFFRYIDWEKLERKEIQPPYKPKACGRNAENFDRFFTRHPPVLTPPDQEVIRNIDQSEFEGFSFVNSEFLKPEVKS
recombinant rabbit GSK-3β, sequence (G1T8E2 1-432): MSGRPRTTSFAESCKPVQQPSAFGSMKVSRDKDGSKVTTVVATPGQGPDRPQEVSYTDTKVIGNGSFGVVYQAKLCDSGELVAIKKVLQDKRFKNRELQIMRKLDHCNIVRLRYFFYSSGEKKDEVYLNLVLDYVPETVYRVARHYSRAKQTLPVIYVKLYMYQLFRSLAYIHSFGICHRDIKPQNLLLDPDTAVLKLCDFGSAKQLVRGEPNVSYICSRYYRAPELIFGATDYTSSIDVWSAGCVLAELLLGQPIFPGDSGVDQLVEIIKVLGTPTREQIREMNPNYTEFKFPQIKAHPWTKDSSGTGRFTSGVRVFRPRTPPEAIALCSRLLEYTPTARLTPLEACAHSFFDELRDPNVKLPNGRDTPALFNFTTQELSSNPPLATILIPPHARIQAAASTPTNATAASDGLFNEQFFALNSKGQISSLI

## 3-(3-bromophenyl)-4-[1-[3-(3-butynylmethylamino)propyl]-1H-indol-3-yl]-1H-pyrrole-2,5-dione [Cpd 22]
[1]
  GSK-3β Assay Activity, % @ 200 nM: 62% @ 200 nM

## COc1ccccc1C1=C(c2cn(CC=O)c3ccccc23)C(=O)NC1=O [Cpd 8, 3-[2,5-dihydro-4-(2-methoxyphenyl)-2,5-dioxo-1H-pyrrol-3-yl]-1H-indole-1-acetaldehyde]
[1]
  IC50: 39 nM

## COc1ccccc1C1=C(c2cn(CCN(C)CCO)c3ccccc23)C(=O)NC1=O [Cpd 9, 3-[1-[2-[(2-hydroxyethyl)methylamino]ethyl]-1H-indol-3-yl]-4-(2-methoxyphenyl)-1H-pyrrole-2,5-dione]
[2]
  PKC Activity Alpha, % @ 10 μM (Histone Based Assay): 27% @ 10 μM
[3]
  PKC Activity Beta II, % @ 1 μM (Histone Based Assay): 40% @ 1 μM
[4]
  PKC Activity Gamma, % @ 10 μM (Histone Based Assay): 15% @ 10 μM
[1]
  IC50: 27 nM

## 3-(2-bromo-5-[3-(dimethylamino)propyl]phenyl]-4-(1-phenyl-1H-indol-3-yl)-1H-pyrrole-2,5-dione [Cpd 25]
[1]
  IC50: 110 nM

## CCOC(Cn1cc(C2=C(c3ccccc3OC)C(=O)NC2=O)c2ccccc21)OCC [Cpd 7, 3-[1-(2,2-diethoxyethyl)-1H-indol-3-yl]-4-(2-methoxy-phenyl)-1H-pyrrole-2,5-dione]
[2]
  PKC Activity Alpha, % @ 10 μM (Histone Based Assay): 39% @ 10 μM
[3]
  PKC Activity Beta II, % @ 1 μM (Histone Based Assay): 68% @ 1 μM
[4]
  PKC Activity Gamma, % @ 10 μM (Histone Based Assay): 54% @ 10 μM
[1]
  IC50: 390 nM

## O=C1NC(=O)C(c2cn(-c3cccnc3)c3ccccc23)=C1c1ccc(O)cc1 [Cpd 29, 3-(4-hydroxyphenyl)-4-[1-(3-pyridinyl)-1H-indol-3-yl]-1H-pyrrole-2,5-dione]
[1]
  IC50: 96 nM

## COc1ccccc1C1=C(c2cn(-c3cncc(C(N)=O)c3)c3ccc(Cl)cc23)C(=O)NC1=O [Cpd 58, 5-{5-Chloro-3-[4-(2-methoxyphenyl)-2,5-dioxo-2,5-dihydro-1H-pyrrol-3-yl]-indol-1-yl}-nicotinamide]
[2]
  IC50: 816 nM
[3]
  IC50: 32 nM
[4]
  IC50: 1270 nM
[1]
  IC50: 18 nM

## CN(C)CCCn1cc(C2=C(c3cccc4ccccc34)C(=O)NC2=O)c2ccccc21 [Cpd 12, 3-[1-[3-(dimethylamino)propyl]-1H-indol-3-yl]-4-(1-naphthalenyl)-1H-pyrrole-2,5-dione]
[1]
  GSK-3β Assay Activity, % @ 200 nM: 64% @ 200 nM

## COc1ccccc1C1=C(c2cn(-c3cccnc3)c3ccccc23)C(=O)NC1=O [Cpd 27, 3-(2-methoxyphenyl)-4-[1-(3-pyridinyl)-1H-indol-3-yl]-1H-pyrrole-2,5-dione]
[2]
  PKC Activity Alpha, % @ 10 μM (Histone Based Assay): 66% @ 10 μM
[3]
  IC50: 527 nM
[1]
  IC50: 26 nM

## COc1ccccc1C1=C(c2cn(C3CCOCC3)c3ccccc23)C(=O)NC1=O [Cpd 55, 3-(2-Methoxyphenyl)-4-[1-(tetrahydropyran-4-yl)-1H-indol-3-yl]-1H-pyrrole-2,5-dione]
[2]
  IC50: 412 nM
[3]
  IC50: 107 nM
[4]
  IC50: 282 nM
[1]
  IC50: 25 nM

## 3-[1-[3-(3-butynylmethylamino)propyl]-1H-indol-3-yl]-4-(3-iodophenyl)-1H-pyrrole-2,5-dione [Cpd 23]
[1]
  GSK-3β Assay Activity, % @ 200 nM: 67% @ 200 nM

## O=C1NC(=O)C(c2cn(-c3cccnc3)c3ccccc23)=C1c1ccccc1O [Cpd 28, 3-(2-hydroxyphenyl)-4-[1-(3-pyridinyl)-1H-indol-3-yl]-1H-pyrrole-2,5-dione]
[1]
  IC50: 68 nM

## COc1ccccc1C1=C(c2cn(-c3cncnc3)c3ccccc23)C(=O)NC1=O [Cpd 26, 3-(2-methoxyphenyl)-4-[1-(5-pyrimidinyl)-1H-indol-3-yl]-1H-pyrrole-2,5-dione]
[2]
  IC50: 2070 nM
[3]
  IC50: 607 nM
[4]
  PKC Activity Gamma, % @ 10 μM (Histone Based Assay): 29% @ 10 μM
[1]
  IC50: 8 nM

## COc1ccccc1C1=C(c2cn(-c3cncc(C(=O)O)c3)c3ccc(Cl)cc23)C(=O)NC1=O [Cpd 56, 5-{5-Chloro-3-[4-(2-methoxyphenyl)-2,5-dioxo-2,5-dihydro-1H-pyrrol-3-yl]-indol-1-yl}-nicotinic acid]
[2]
  IC50: 592 nM
[3]
  IC50: 42 nM
[4]
  IC50: 832 nM
[1]
  IC50: 51 nM

## CN(CCO)CCn1cc(C2=C(c3csc4ccc(Cl)cc34)C(=O)NC2=O)c2ccccc21 [Cpd 41, 3-(5-chlorobenzo[b]thien-3-yl)-4-(1-[2-[(2-hydroxyethyl)methylamino]ethyl]-1H-indol-3-yl]-1H-pyrrole-2,5-dione]
[1]
  GSK-3β Assay Activity, % @ 200 nM: 81% @ 200 nM

## CN(C)CC(O)COc1ccccc1C1=C(c2cn(CCO)c3ccccc23)C(=O)NC1=O (stereo not shown) [Cpd 21, 3-[2-[3-(dimethylamino)-2-hydroxypropoxy]phenyl]-4-[1-(2-hydroxyethyl)-1H-indol-3-yl]-1H-pyrrole-2,5-dione]
[2]
  IC50: 117 nM
[3]
  IC50: 51 nM
[4]
  IC50: 477 nM

## O=C1NC(=O)C(c2cn(CCN3CCSC3)c3ccccc23)=C1c1csc2ccc(Cl)cc12 [Cpd 46, 3-(5-chlorobenzo[b]thien-3-yl)-4-[1-[2-(3-thiazolidinyl)ethyl]-1H-indol-3-yl]-1H-pyrrole-2,5-dione]
[1]
  GSK-3β Assay Activity, % @ 200 nM: 45% @ 200 nM

## COC(=O)c1cncc(-n2cc(C3=C(c4ccccc4OC)C(=O)NC3=O)c3cc(Cl)ccc32)c1 [Cpd 57, 5-{5-Chloro-3-[4-(2-methoxyphenyl)-2,5-dioxo-2,5-dihydro-1H-pyrrol-3-yl]-indol-1-yl}-nicotinic acid methyl ester]
[1]
  IC50: 40 nM

## C=Cn1cc(C2=C(c3cccc(OCC(O)CN(C)C)c3)C(=O)NC2=O)c2ccccc21 (stereo not shown) [Cpd 2, 3-[3-[3-(dimethylamino)-2-hydroxypropoxy]phenyl]-4-(1-ethenyl-1H-indol-3-yl)-1H-pyrrole-2,5-dione]
[1]
  GSK-3β Assay Activity, % @ 200 nM: 72% @ 200 nM

## CN(C)CCCn1cc(C2=C(c3csc4ccc(Cl)cc34)C(=O)NC2=O)c2ccccc21 [Cpd 31, 3-(5-chlorobenzo[b]thien-3-yl)-4-[1-[3-(dimethylamino)propyl]-1H-indol-3-yl]-1H-pyrrole-2,5-dione]
[2]
  IC50: 83 nM
[3]
  IC50: 81 nM

Reference: patent US7232906B2, “Substituted pyrrolines as kinase inhibitors” (Janssen Pharmaceutica N.V., priority 2002, dated 2007)
